The source made the active and inactive calls. No cut-off for these calls is given here.
Key:
[1] = Octanol-water partition coefficient, log P of the compound at 23 degC by shake flask method; assay type: physicochemical
Periplaneta americana [2] = assay: Insecticidal activity against Periplaneta americana (American cockroach) assessed as killing compound injected into abdomen of cockroach after 24 hr in presence of 50 ug piperonyl butoxide oxidative metabolism inhibitor and 50 ug propargyl propyl benzenephosphonate inhibitor of hydrolytic; assay type: functional
Periplaneta americana [3] = assay: Insecticidal activity against Periplaneta americana (American cockroach) assessed as neuroblocking concentration; assay type: functional
Periplaneta americana [4] = assay: Insecticidal activity against Periplaneta americana (American cockroach) assessed as killing compound injected into abdomen of cockroach after 24 hr in presence of 50 ug propargyl propyl benzenephosphonate inhibitor of hydrolytic metabolism of tetramethrin pyrethroid; assay type: functional
Periplaneta americana [5] = assay: Insecticidal activity against Periplaneta americana (American cockroach) assessed as killing compound injected into abdomen of cockroach after 24 hr in presence of 50 ug piperonyl butoxide oxidative metabolism inhibitor; assay type: functional
Periplaneta americana [6] = assay: Insecticidal activity against Periplaneta americana (American cockroach) assessed as killing compound injected into abdomen of cockroach after 24 hr; assay type: functional
Periplaneta americana [7] = assay: Insecticidal activity against Periplaneta americana (American cockroach) assessed as increase in frequency of impulses in nerve preparation measured immediately after treatment at 10^-5 M by electrophysiological method; assay type: functional, organism-based

SMILES | logP [1] | MLD (Periplaneta americana [2]) [nmol] | Activity (Periplaneta americana [3]) [µM] | MLD (Periplaneta americana [4]) [nmol] | MLD (Periplaneta americana [5]) [nmol] | MLD (Periplaneta americana [6]) [nmol] | Activity (Periplaneta americana [7])
CN(Cc1ccc(Cl)nc1)/C(=N/C#N)NCc1ccccc1 | 1.32 | 6.3 | 150 | 8.1 | 25 | 81 | 
CCN/C(=N\C#N)NCc1ccc(Cl)nc1 | 0.86 | >170 | >170 |  |  | >170 | 
CS/C(=N\C#N)N(C)Cc1ccc(Cl)nc1 | 1.4 | 2.5 | 6 | 6.3 | 71 | 160 | 
CN(Cc1ccc(Cl)nc1)/C(N)=N/C#N | 0.71 | 1.2 | 9.6 | 0.71 | 14 | 22 | 
CN(C)/C(=N\C#N)N(C)Cc1ccc(Cl)nc1 | 0.66 | 20 | >400 | 32 | 200 | 320 | 
CN/C(=N\C#N)N(C)Cc1ccc(Cl)nc1 | 0.78 | 54 | >170 |  |  | 68 | 
CS/C(=N\C#N)NCc1ccc(Cl)nc1 | 1.27 | 0.66 | 1.7 | 0.83 | 21 | >83 | 
N#C/N=C1\SCCN1Cc1ccc(Cl)nc1 [THIACLOPRID] | 1.2 | 0.21 | 2.6 | 0.46 | 5.9 | 21 | 
CN(C)/C(=N\C#N)NCc1ccc(Cl)nc1 | 0.66 | 140 | >170 |  |  | >170 | 
O=[N+]([O-])/N=C1\NCCN1Cc1ccc(Cl)nc1 [IMIDACLOPRID] | 0.6 | 0.07 | 2.3 | 0.19 | 0.55 | 1.1 | 
N#C/N=C(\NCc1ccccc1)NCc1ccc(Cl)nc1 |  | 66 | 150 |  |  | >66 | 
CCN/C(=N\C#N)N(C)Cc1ccc(Cl)nc1 | 1.02 | 40 | >160 |  |  | 26 | 
CN/C(=N\C#N)NCc1ccc(Cl)nc1 | 0.84 | 8.9 | 110 | 18 | 180 | >180 | Active
